{
  "source": "patent US8241866B2",
  "about": "“Method for detection of microorganism and kit for detection of microorganism” (Morinaga Milk Industry Co., Ltd., priority 2005, dated 2012)",
  "key": {"Escherichia coli DH5α": {"system": "Escherichia coli DH5α", "assay": "FCM measurement after SYTO9/PI staining of EMA-treated Escherichia coli suspensions (live, injured, dead cells)", "assay_type": "cell-based"}, "[1]": {"system": "chromosomal DNA of Citrobacter koseri JCM 1658", "assay": "Agarose gel electrophoresis of chromosomal DNA after EMA treatment, Citrobacter", "assay_type": "cell-based", "parameters": "key: presence of this band was indicated as (+); absence of this band was indicated as (−)", "conditions": "EMA 4° C. 30 minutes"}, "[2]": {"system": "Escherichia coli (injured cells)", "assay_type": "cell-based", "conditions": "injured cells inoculated at 1.5×10^6 cfu/ml; LP treatment and EMA treatment"}, "[3]": {"system": "contaminants in heparinized human blood", "assay": "FCM of human blood by EMA-LNP-FP method versus LNP-FP method", "assay_type": "cell-based", "conditions": "10 μl of 1000 μg/ml EMA to 1 ml blood, 4° C. 5 minutes, visible light 5 minutes", "experimental": "Heparinized blood (type A) was collected from a healthy human subject, and a Listeria live cell suspension of 1.8×10^8 cfu/ml was diluted 10 times with the blood. The suspension was further serially diluted with the blood to prepare blood inoculated with 1.8×10^3 to […] cfu/ml of Listeria monocytogenes (live cells). […] Then, each sample was irradiated with visible light of 500 W for 5 minutes on ice. 750 μl of physiological saline, 200 μl of a 189 U/ml lipase solution and 10 μl of a 10000 U/ml deoxyribonuclease solution was added to each sample, and the sample was maintained at 30° C. for 30 minutes. […] The total volume of the aforementioned EMA-treated blood was carefully overlaid on 2 ml of Ficoll Paque filled beforehand in a 15 ml volume polypropylene tube, and subjected to centrifugation at 100×g for 5 minutes. […] The same procedure as that of the aforementioned method (referred to as the “EMA-LNP-FP method”) was also performed in parallel except that the EMA treatment was not performed (referred to as the “LNP-FP method”) to prepare a sample for FCM measurement."}, "[4]": {"system": "contaminants of somatic cells and injured cells in LTLT non-homogenized milk", "assay": "FCM after SYTO9/PI staining of LP-treated and EMA-treated LTLT non-homogenized milk not inoculated with bacteria", "conditions": "LP-treated and EMA-treated (LPE-treated) LTLT non-homogenized milk not inoculated"}, "[5]": {"system": "chromosomal DNA of Salmonella enteritidis IID 604", "assay": "Agarose gel electrophoresis of chromosomal DNA after EMA treatment, Salmonella", "assay_type": "cell-based", "parameters": "key: presence of this band was indicated as (+); absence of this band was indicated as (−)", "conditions": "EMA 4° C. 30 minutes"}, "[6]": {"system": "chromosomal DNA of Escherichia coli DH5α", "assay": "Agarose gel electrophoresis of chromosomal DNA after EMA treatment, Escherichia coli", "assay_type": "cell-based", "parameters": "key: presence of this band was indicated as (+); absence of this band was indicated as (−)"}, "[7]": {"system": "chromosomal DNA of Klebsiella oxytoca JCM 1665", "assay": "Agarose gel electrophoresis of chromosomal DNA after EMA treatment, Klebsiella", "assay_type": "cell-based", "parameters": "key: presence of this band was indicated as (+); absence of this band was indicated as (−)", "conditions": "EMA 4° C. 30 minutes"}, "[8]": {"system": "Mycobacterium tuberculosis H37RA", "assay": "FCM after SYTO9/PI staining of EMA-treated Mycobacterium tuberculosis (live, injured, dead cells)"}, "[9]": {"system": "Staphylococcus epidermidis KD strain", "assay": "FCM measurement after SYTO9/PI staining of LP-treated and EMA-treated Staphylococcus epidermidis suspensions", "assay_type": "cell-based", "conditions": "EMA treatment after LP treatment; 10 μl of 1000 μg/ml EMA to 1 ml, 4° C. 30 minutes, visible light 500 W 10 minutes"}, "[10]": {"system": "Listeria monocytogenes JCM 2873", "assay": "Colony formation of Listeria cultured with ampicillin and gentamycin", "assay_type": "cell-based", "conditions": "ampicillin 500 μg/ml together with gentamycin 200 μg/ml, 30° C. for 3 weeks"}, "[11]": {"system": "Escherichia coli (live cells) and contaminants originated in UHT homogenized milk", "assay_type": "cell-based", "conditions": "treatment after LP treatment, 37° C.; amsacrine 10 minutes, others 30 minutes; 7.5×10^6 cfu/ml", "excerpt": "Specific procedures are as shown in a) to d) described below."}, "[12]": {"system": "Mycobacterium tuberculosis H37RA", "assay_type": "cell-based"}, "[13]": {"conditions": "after the EMA treatment, dead cells (boiling water 12 minutes)"}, "[14]": {"conditions": "after the EMA treatment, injured cells (boiling water 50 seconds)"}, "[15]": {"conditions": "after the EMA treatment, live cells"}, "[16]": {"conditions": "after the EMA treatment (about 30 μg/ml, 4° C. 2.5 hours), injured cells treated with isonicotinic acid hydrazide and rifampicin"}},
  "data": [
    {"compound": "CC[n+]1c(-c2ccccc2)c2cc(N=[N+]=[N-])ccc2c2ccc(N)cc21.[Cl-]", "note": "[EMA, 8-azido-3-amino-6-phenyl-5-ethylphenanthradinium chloride]", "values": [
      {"measurement": "distinction of live cells and injured cells by FCM", "setting": "Escherichia coli DH5α; EMA treatment after LP treatment, 10 μl of 1000 μg/ml EMA to 1 ml, 4° C. 30 minutes, visible light 500 W 10 minutes", "value": "clearly distinguish"},
      {"measurement": "intensity of staining with SYTO9 for injured cells", "setting": "Escherichia coli DH5α; after the EMA treatment versus before", "value": "markedly decreased"},
      {"measurement": "PI region of main distribution, dead cells", "setting": "Escherichia coli DH5α; [13]", "value": "PI(+) (The boundary value of the intensity of the staining with PI is defined to be an intensity of 2×10^2, results exceeding that value are represented as PI(+))"},
      {"measurement": "SYTO9 region of main distribution, dead cells", "setting": "Escherichia coli DH5α; [13]", "value": "SYTO9(−) (results lower than that value are represented as SYTO9(−))"},
      {"measurement": "PI region of main distribution, injured cells", "setting": "Escherichia coli DH5α; [14]", "value": "PI(−) (results lower than that value are represented as PI(−))"},
      {"measurement": "SYTO9 region of main distribution, injured cells", "setting": "Escherichia coli DH5α; [14]", "value": "SYTO9(−) (results lower than that value are represented as SYTO9(−))"},
      {"measurement": "PI region of main distribution, live cells", "setting": "Escherichia coli DH5α; [15]", "value": "PI(−) (results lower than that value are represented as PI(−))"},
      {"measurement": "SYTO9 region of main distribution, live cells", "setting": "Escherichia coli DH5α; [15]", "value": "SYTO9(+) (The boundary value of the intensity of the staining with SYTO9 is defined to be an intensity of 10^3, results exceeding that value are represented as SYTO9(+))"},
      {"measurement": "LL band originated in chromosomal DNA, injured cells", "setting": "[1]; EMA-treated injured cells", "value": "(−)"},
      {"measurement": "LL band originated in chromosomal DNA, live cells", "setting": "[1]; EMA-treated live cells", "value": "(+)"},
      {"measurement": "plotted points in the SYTO9(+)·PI(−) region suggesting the presence of live cells", "setting": "[2]", "value": "hardly existed"},
      {"measurement": "shift of plotted points of the contaminants corresponding to SYTO9(−)·PI(−)", "setting": "[3]", "value": "not shifted to the left direction"},
      {"measurement": "SYTO9 intensity", "setting": "[4]", "value": "below 5×10^2"},
      {"measurement": "LL band originated in chromosomal DNA, injured cells", "setting": "[5]; EMA-treated injured cells", "value": "(−)"},
      {"measurement": "LL band originated in chromosomal DNA, live cells", "setting": "[5]; EMA-treated live cells", "value": "(+)"},
      {"measurement": "LL band originated in chromosomal DNA, dead cells", "setting": "[6]; EMA-treated dead cells (FIG. 11)", "value": "(−)"},
      {"measurement": "LL band originated in chromosomal DNA, injured cells", "setting": "[6]; EMA-treated injured cells, EMA 4° C. 30 minutes", "value": "(−)"},
      {"measurement": "LL band originated in chromosomal DNA, live cells", "setting": "[6]; EMA-treated live cells, EMA 4° C. 30 minutes", "value": "(+)"},
      {"measurement": "LL band originated in chromosomal DNA, injured cells", "setting": "[7]; EMA-treated injured cells", "value": "(−)"},
      {"measurement": "LL band originated in chromosomal DNA, live cells", "setting": "[7]; EMA-treated live cells", "value": "(+)"},
      {"measurement": "PI region, injured cells", "setting": "[8]; [16]", "value": "PI(−) (results lower than that value are represented as PI(−))"},
      {"measurement": "SYTO9 region, injured cells", "setting": "[8]; [16]", "value": "SYTO9(−) (results lower than that value are represented as SYTO9(−))"},
      {"measurement": "SYTO9 region of main distribution, dead cells", "setting": "[8]; [13]", "value": "SYTO9(+) (The boundary value of the intensity of the staining with SYTO9 is defined to be an intensity of 10^3, results exceeding that value are represented as SYTO9(+))"},
      {"measurement": "SYTO9 intensity of the injured cells", "setting": "[8]; by the EMA treatment", "value": "markedly shifted to the left direction"},
      {"measurement": "distinction of live cells and injured cells by FCM", "setting": "[9]", "value": "the same results"}
    ]},
    {"compound": "CC1(C)S[C@@H]2[C@H](NC(=O)[C@H](N)c3ccccc3)C(=O)N2[C@H]1C(=O)O", "note": "[ampicillin]", "values": [
      {"measurement": "colony formation on L agar medium", "setting": "[10]", "value": "did not form colonies"}
    ]},
    {"compound": "CC[C@@]1(O)C(=O)OCc2c1cc1n(c2=O)Cc2cc3ccccc3nc2-1", "note": "[camptothecin]", "values": [
      {"measurement": "separation of plotted areas of Escherichia coli (live cells) and contaminants", "setting": "[11]", "value": "clearly separated"}
    ]},
    {"compound": "O=C(O)c1cn(C2CC2)c2cc(N3CCNCC3)c(F)cc2c1=O", "note": "[ciprofloxacin]", "values": [
      {"measurement": "separation of plotted areas of Escherichia coli (live cells) and contaminants", "setting": "[11]", "value": "clearly separated"}
    ]},
    {"compound": "Cc1c2ccncc2c(C)c2c1[nH]c1ccccc12", "note": "[ellipticine]", "values": [
      {"measurement": "separation of plotted areas of Escherichia coli (live cells) and contaminants", "setting": "[11]", "value": "clearly separated"}
    ]},
    {"compound": "NNC(=O)c1ccncc1", "note": "[isonicotinic acid hydrazide]", "values": [
      {"measurement": "colony formation on 7H10 medium", "setting": "[12]", "value": "did not form colonies"}
    ]},
    {"compound": "gentamycin", "values": [
      {"measurement": "colony formation on L agar medium", "setting": "[10]", "value": "did not form colonies"}
    ]}
  ]
}
